In US20100113415A1, “EPHA4 RTK INHIBITORS FOR TREATMENT OF NEUROLOGICAL AND NEURODEGENERATIVE DISORDERS AND CANCER” (priority 2008, published 2010):
pIC50: −log10 of the molar value.

Experiments:
[1] = test system: C2C12 cells; assay: Toxicity (percent of cell death), C2C12 cells; format: cell-based; details: 20 μM
Experimental: EphA4 kinase inhibition is assessed by both an enzymatic assay measuring the phosphorylation of a purified recombinant EphA4 kinase and a cell-based assay using the activation of pGas-Luciferase system in EphA4-transfected CHO-K1 cells. The functional effects of EphA4 RTK inhibitors on cell motility and proliferation is evaluated by the scratch wound assay. The effect of EphA4 RTK inhibitors is also directly measured on the cell confluence. The counterscreen assays (cell counterscreen, Src, Jak2 and P38α kinase) identified other potential inhibitory activities of compounds unrelated to EphA4 kinase. The toxicity is measured by the percent of cell death in the different cell assays. Values represent IC50 and IP in μM calculated from the dose-response curves. Values in parentheses give the maximum percent inhibition.

[2] = test system: Primary Rat cortical astrocytes; assay: Proliferation assay (cell confluence), astrocytes; format: cell-based; details: at 5 μM
Experimental: C2Cl2 were plated at 15,000 cells per well and then differentiated into myotubes with DMEM supplemented with 2% horse serum for 3 days in 24 well ImageLock™ plate (Essen Instruments, MI, USA). Primary Rat cortical astrocytes were plated at 3.105 cells/ml onto 24 well ImageLock™ plate.
Cells were placed into the IncuCyte™ at 37° C. and 95% CO2/5% O2, for two to three days. During this time, the cells within each well were repeatedly imaged at fixed time intervals (every three hours). The IncuCyte™ system automatically monitored the proliferation using the percentage of confluence. Percent of confluence can be graphed over time to evaluate the characteristics of proliferation in the presence of pharmacological agents.
Compounds were tested at 5 μM in quadruplicate. The percentage of reduction of cell confluence was calculated from the AUCs in comparison with the AUCs of the control wells (1% DMSO).

[3] = test system: Primary Rat cortical astrocytes; assay: Scratch wound assay, astrocytes; format: cell-based; details: from AUC of % wound confluence; for pIC50: Rattus norvegicus, Astrocyte, inflexion point, read-out: Scratch Assay Astrocytes IP
Experimental: Primary Rat cortical astrocytes were purchased from Lonza (Walkersvelle Inc., MA, USA). Cells were plated in culture flasks at a density of 1.106-3.106 cells/ml, and maintained at 37° C. and 95% CO2/5% O2, in Astrocyte Growth Medium Bulletkit™ (Lonza Walkersville Inc., MA, USA). When astrocyte cultures reached confluence, cells were trypsinized and replated at 6.105 cells/ml onto 24 well ImageLock™ plate (Essen Instruments, MI, USA).
Scratch wound assays are commonly used to assess the effects of drugs and drug candidates on the cellular proliferation and/or migration associated with wound closing. The IncuCyte™ system (Essen Instruments, MI, USA), an automated imaging platform, provides ongoing, real-time images and quantitative data generated throughout the wound-closing process. Cells were maintained in 24 well ImageLock™ (Essen Instruments, MI, USA) at 37° C. and 95% CO2/5% O2, until a confluent monolayer was achieved. A single scratch wound was then created in each well using the Essen Woundmaker™ (Essen Instruments, MI, USA). It induced a mechanical scratch of the cell monolayer using plastic pipette tips (10-20 μl pipette tips, Eppendorff). Dead cells and other debris produced by the scratch were immediately washed with regular growth media. Cells were then treated with pharmacological agents and were placed into the IncuCyte™ at 37° C. and 95% CO2/5% O2, for two to three days. During this time, the wound area within each well was repeatedly imaged at fixed time intervals (every three hours). The IncuCyte™ scratch wound software generates a “wound mask” for each well. An initial wound mask is created for the first image (at time 0) that clearly delineates the border of the wound. A revised mask is generated for each subsequent image to track wound closure. Wound closure can be automatically monitored using the wound confluence (% confluence). Wound confluence can be graphed over time to evaluate the characteristics of wound closing in the presence of pharmacological agents.
The calculation of the area under the curve (AUC) of the % confluence function of the time gave a quantitative measurement of compounds efficacy on the scratch wound closing. Compounds were titrated in quadruplicate at 5 points concentration starting at 20 μM with a two-fold increment. The percentage of inhibition was calculated from the AUCs at each dose in comparison with the AUCs of the control wells (1% DMSO). Concentration-response curves were represented and the concentrations at the inflexion point (IP) were calculated. The maximum effect was given by the maximum percent inhibition.

[4] = target: T1, Jak2 (Homo sapiens, UniProt O60674); assay: Jak2 kinase counterscreen enzymatic assay (TR-FRET); format: biochemical; details: 5 μM ATP
T1 construct: purchased Cell Signaling, USA
Experimental: Counterscreen assays were developed for the tyrosine kinases src kinase and Jak2 kinase, with a format essentially identical to the EphA4 kinase TR-FRET format. Jak2 (50 ng) (Cell Signaling, USA) was incubated with 0.5 μM of biotinylated FLT3 peptide (Cell Signaling, USA) in presence of 5 μM of ATP (Sigma). P60c-src (10 U/well) (Upstate biotechnology, USA) was incubated with biotinylated Poly(Glu Tyr) peptide (100 nM) in presence of 0.5 μM of ATP. The enzymatic reaction was stopped after 60 min by adding 15 mM EDTA. The detection reaction and energy transfer signal measurements were similar to those previously described. Results were expressed as ratios of the absorbencies 665/615.
Compounds were titrated in duplicate at 11 points concentration starting at 100 μM with a 3 fold increment. Compounds were diluted in DMSO. […] Percentage inhibition for each compound was then calculated based on the value of the 100% inhibition. Concentration-response curves were represented and the concentrations for 50% inhibition (IC50) were calculated.

T1 sequence (O60674 whole entry, species assumed): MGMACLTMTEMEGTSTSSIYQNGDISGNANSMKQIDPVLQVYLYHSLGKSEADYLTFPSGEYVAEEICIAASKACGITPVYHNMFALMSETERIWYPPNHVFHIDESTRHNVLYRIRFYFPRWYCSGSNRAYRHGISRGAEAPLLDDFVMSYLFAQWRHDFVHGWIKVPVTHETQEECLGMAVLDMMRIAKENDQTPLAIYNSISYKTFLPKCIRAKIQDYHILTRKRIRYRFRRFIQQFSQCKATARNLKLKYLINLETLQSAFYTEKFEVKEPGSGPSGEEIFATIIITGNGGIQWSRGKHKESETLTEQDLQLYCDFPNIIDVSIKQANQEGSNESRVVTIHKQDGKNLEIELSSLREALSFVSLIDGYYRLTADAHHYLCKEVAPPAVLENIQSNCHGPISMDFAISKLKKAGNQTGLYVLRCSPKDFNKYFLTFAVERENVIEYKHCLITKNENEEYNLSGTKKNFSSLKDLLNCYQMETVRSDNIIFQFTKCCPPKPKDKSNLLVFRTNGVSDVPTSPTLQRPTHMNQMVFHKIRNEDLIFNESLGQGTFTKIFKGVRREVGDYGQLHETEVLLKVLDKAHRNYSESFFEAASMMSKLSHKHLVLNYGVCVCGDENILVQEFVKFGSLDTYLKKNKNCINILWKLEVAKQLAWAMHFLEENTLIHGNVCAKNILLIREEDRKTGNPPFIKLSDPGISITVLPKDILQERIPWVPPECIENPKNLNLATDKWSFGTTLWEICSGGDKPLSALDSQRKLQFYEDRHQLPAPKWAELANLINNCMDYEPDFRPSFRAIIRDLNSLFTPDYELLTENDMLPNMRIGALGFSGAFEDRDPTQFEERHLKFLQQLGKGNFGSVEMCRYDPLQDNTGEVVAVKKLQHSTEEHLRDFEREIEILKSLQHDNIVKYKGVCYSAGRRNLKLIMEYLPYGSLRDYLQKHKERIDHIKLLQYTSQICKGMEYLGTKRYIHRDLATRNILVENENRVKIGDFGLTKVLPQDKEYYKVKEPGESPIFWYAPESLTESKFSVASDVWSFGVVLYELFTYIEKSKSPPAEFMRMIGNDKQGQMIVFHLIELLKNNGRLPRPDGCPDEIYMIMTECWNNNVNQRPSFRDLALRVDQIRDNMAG

SMILES | Max Toxicity C2C12 in cells % of cell death [1] [%] | % Reduction of Confluence Astrocytes [2] [% at 5 μM] | pIC50 [3] | Scratch Assay Astrocytes max inhibition in % [3] [%] | pIC50 [4]
CC1CCc2c(-c3ccccc3Cl)nc3[nH]nc(N)c3c2C1 (stereo not shown) [Example 63] | 3 | 14.8 | 4.31 | 33 | < 4.00
Cc1ccccc1-c1nc2[nH]nc(N)c2c2c1CCC(C)(C)C2 [Example 67] | 10 | 29.1 | 5.85 | 66 | 6.00
